Source: ChEMBL document CHEMBL1201862, “PubChem BioAssay data set” (2004)
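Five compound concentrations were applied to cells in 96-well plates for 48 hours; endpoints were derived by simple linear interpolation of the resulting dose-response curve. GI50 = concentration required for 50% inhibition of growth.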 Active and inactive are the calls of the source. Rule as the data show it: active = GI50 up to about 1.1 µM and inactive = higher.

Columns and labels:
Test in all cases: NCI tumour cell line growth inhibition, 48 h
786-0 = test system: 786-0
A498 = test system: A498
A549 = test system: A549
ACHN = test system: ACHN
BT-549 = test system: BT-549
CAKI-1 = test system: CAKI-1
CCRF-CEM = test system: CCRF-CEM
COLO 205 = test system: COLO 205
DU-145 = test system: DU-145
EKVX = test system: EKVX
HCC 2998 = test system: HCC 2998
HCT-116 = test system: HCT-116
HCT-15 = test system: HCT-15
HL-60 = test system: HL-60
HOP-62 = test system: HOP-62
HOP-92 = test system: HOP-92
HT-29 = test system: HT-29
Hs-578T = test system: Hs-578T
IGROV-1 = test system: IGROV-1
K562 = test system: K562
KM12 = test system: KM12
LOX IMVI = test system: LOX IMVI
M14 = test system: M14
MCF7 = test system: MCF7
MDA-MB-231 = test system: MDA-MB-231
MDA-MB-435 = test system: MDA-MB-435
MDA-N = test system: MDA-N
MOLT-4 = test system: MOLT-4
Malme-3M = test system: Malme-3M
NCI-H226 = test system: NCI-H226
NCI-H23 = test system: NCI-H23
NCI-H460 = test system: NCI-H460
NCI-H522 = test system: NCI-H522
NCI/ADR-RES = test system: NCI/ADR-RES
OVCAR-3 = test system: OVCAR-3
OVCAR-4 = test system: OVCAR-4
OVCAR-5 = test system: OVCAR-5
OVCAR-8 = test system: OVCAR-8
PC-3 = test system: PC-3
RPMI-8226 = test system: RPMI-8226
RXF 393 = test system: RXF 393
SF-268 = test system: SF-268
SF-295 = test system: SF-295
SF-539 = test system: SF-539
SK-MEL-28 = test system: SK-MEL-28
SK-MEL-2 = test system: SK-MEL-2
SK-MEL-5 = test system: SK-MEL-5
SK-OV-3 = test system: SK-OV-3
SN12C = test system: SN12C
SNB-19 = test system: SNB-19
SNB-75 = test system: SNB-75
SR = test system: SR
SW-620 = test system: SW-620
T47D = test system: T47D
TK-10 = test system: TK-10
U-251 = test system: U-251
UACC-257 = test system: UACC-257
UACC-62 = test system: UACC-62
UO-31 = test system: UO-31

Compound: CC/C(Cl)=N\OC(=O)Nc1ccc(C#N)cc1
- GI50 (786-0): 11.2 µM (inactive)
- GI50 (A498): 16.6 µM (inactive)
- GI50 (A549): 18.2 µM (inactive)
- GI50 (ACHN): 14.3 µM (inactive)
- GI50 (BT-549): 15.1 µM (inactive)
- GI50 (CAKI-1): 5.04 µM (inactive)
- GI50 (CCRF-CEM): 1.63 µM (inactive)
- GI50 (COLO 205): 1.82 µM (inactive)
- GI50 (DU-145): 16 µM (inactive)
- GI50 (EKVX): 13.3 µM (inactive)
- GI50 (HCC 2998): 16.4 µM (inactive)
- GI50 (HCT-116): 14.6 µM (inactive)
- GI50 (HCT-15): 7.93 µM
- GI50 (HL-60): 2.01 µM (inactive)
- GI50 (HOP-62): 17.2 µM (inactive)
- GI50 (HOP-92): 3.15 µM (inactive)
- GI50 (HT-29): 18.6 µM (inactive)
- GI50 (Hs-578T): 21.9 µM (inactive)
- GI50 (IGROV-1): 16.4 µM (inactive)
- GI50 (K562): 1.86 µM (inactive)
- GI50 (KM12): 17.1 µM (inactive)
- GI50 (LOX IMVI): 4.47 µM (inactive)
- GI50 (M14): 12.3 µM (inactive)
- GI50 (MCF7): 15.1 µM (inactive)
- GI50 (MDA-MB-231): 15.3 µM (inactive)
- GI50 (MDA-MB-435): 15.6 µM (inactive)
- GI50 (MDA-N): 16.3 µM (inactive)
- GI50 (MOLT-4): 2.28 µM (inactive)
- GI50 (Malme-3M): 4.11 µM (inactive)
- GI50 (NCI-H226): 16.6 µM (inactive)
- GI50 (NCI-H23): 17.2 µM (inactive)
- GI50 (NCI-H460): 19.5 µM (inactive)
- GI50 (NCI-H522): 1.48 µM (inactive)
- GI50 (NCI/ADR-RES): 13.3 µM (inactive)
- GI50 (OVCAR-3): 18.5 µM (inactive)
- GI50 (OVCAR-4): 8.09 µM (inactive)
- GI50 (OVCAR-5): 15.9 µM (inactive)
- GI50 (OVCAR-8): 16.9 µM (inactive)
- GI50 (PC-3): 16.7 µM (inactive)
- GI50 (RPMI-8226): 2.28 µM (inactive)
- GI50 (RXF 393): 8.75 µM (inactive)
- GI50 (SF-268): 18.1 µM (inactive)
- GI50 (SF-295): 18.7 µM (inactive)
- GI50 (SF-539): 16.6 µM (inactive)
- GI50 (SK-MEL-28): 18 µM (inactive)
- GI50 (SK-MEL-2): 15.9 µM (inactive)
- GI50 (SK-MEL-5): 12.9 µM (inactive)
- GI50 (SK-OV-3): 4.94 µM (inactive)
- GI50 (SN12C): 16.4 µM (inactive)
- GI50 (SNB-19): > 100 µM (inactive)
- GI50 (SNB-75): 14.9 µM (inactive)
- GI50 (SR): 3.13 µM (inactive)
- GI50 (SW-620): 3.28 µM (inactive)
- GI50 (T47D): 10.8 µM (inactive)
- GI50 (TK-10): 16.4 µM (inactive)
- GI50 (U-251): 17.1 µM (inactive)
- GI50 (UACC-257): 16.1 µM (inactive)
- GI50 (UACC-62): 15 µM (inactive)
- GI50 (UO-31): 17.2 µM (inactive)

Compound: CC(C)NC(=O)OCc1c(COC(=O)NC(C)C)c(-c2ccc[n+](COC(=O)Cc3ccccc3)c2)n2c1CCC2
- GI50 (786-0): 17.3 µM (inactive)
- GI50 (A498): 22.5 µM (inactive)
- GI50 (A549): 44.8 µM (inactive)
- GI50 (ACHN): 13.2 µM (inactive)
- GI50 (BT-549): 24.1 µM (inactive)
- GI50 (CAKI-1): 9.48 µM (inactive)
- GI50 (CCRF-CEM): 54.7 µM (inactive)
- GI50 (COLO 205): 41.7 µM (inactive)
- GI50 (DU-145): 25.4 µM (inactive)
- GI50 (EKVX): 85.5 µM (inactive)
- GI50 (HCC 2998): > 100 µM (inactive)
- GI50 (HCT-116): 30.4 µM (inactive)
- GI50 (HCT-15): 55.5 µM
- GI50 (HL-60): > 100 µM (inactive)
- GI50 (HOP-62): 31.7 µM (inactive)
- GI50 (HOP-92): 16.4 µM (inactive)
- GI50 (HT-29): 26.1 µM (inactive)
- GI50 (Hs-578T): 48.1 µM (inactive)
- GI50 (IGROV-1): 75.3 µM (inactive)
- GI50 (K562): 71 µM (inactive)
- GI50 (KM12): > 100 µM (inactive)
- GI50 (LOX IMVI): 24 µM (inactive)
- GI50 (M14): 40.2 µM (inactive)
- GI50 (MCF7): 25.1 µM (inactive)
- GI50 (MDA-MB-231): 26.2 µM (inactive)
- GI50 (MDA-MB-435): 71.1 µM (inactive)
- GI50 (MDA-N): 80 µM (inactive)
- GI50 (MOLT-4): 6.76 µM (inactive)
- GI50 (Malme-3M): 49 µM (inactive)
- GI50 (NCI-H226): 77.3 µM (inactive)
- GI50 (NCI-H23): 21.3 µM (inactive)
- GI50 (NCI-H460): 19.8 µM (inactive)
- GI50 (NCI-H522): 19 µM (inactive)
- GI50 (NCI/ADR-RES): 36.6 µM (inactive)
- GI50 (OVCAR-3): 41 µM (inactive)
- GI50 (OVCAR-4): 25 µM (inactive)
- GI50 (OVCAR-5): 36.1 µM (inactive)
- GI50 (OVCAR-8): 37.8 µM (inactive)
- GI50 (PC-3): 34 µM (inactive)
- GI50 (RPMI-8226): 23.6 µM (inactive)
- GI50 (RXF 393): 23 µM (inactive)
- GI50 (SF-268): 26.9 µM (inactive)
- GI50 (SF-295): 35 µM (inactive)
- GI50 (SF-539): 34.5 µM (inactive)
- GI50 (SK-MEL-28): > 100 µM (inactive)
- GI50 (SK-MEL-2): 28.1 µM (inactive)
- GI50 (SK-MEL-5): 33.4 µM (inactive)
- GI50 (SK-OV-3): 29.2 µM (inactive)
- GI50 (SN12C): 30.2 µM (inactive)
- GI50 (SNB-19): 94.8 µM (inactive)
- GI50 (SNB-75): 24.3 µM (inactive)
- GI50 (SR): 3.15 µM (inactive)
- GI50 (SW-620): 22.5 µM (inactive)
- GI50 (T47D): 28.7 µM (inactive)
- GI50 (TK-10): 45 µM (inactive)
- GI50 (U-251): 29.1 µM (inactive)
- GI50 (UACC-257): 58.9 µM (inactive)
- GI50 (UACC-62): 17 µM (inactive)
- GI50 (UO-31): 27.5 µM (inactive)
